The test system of experiment [1] is ligated 6th instar Indian stick insects (Carausius morosus). Nature of the experiment: Carbohydrate-mobilization (hypertrehalosemic) in vivo assay. To be noted: for Hemolymph carbohydrates, 90 min: 90 min after injection of 20 pmol peptide in 10 μl; for Hemolymph carbohydrates, 90 min / Hemolymph carbohydrates, Difference: neck-ligated 6th instar nymphs; for Hemolymph carbohydrates, Difference: 90 min minus 0 min, 20 pmol peptide in 10 μl injected; for Hemolymph carbohydrates, 0 min: before injection (0 min), 2 h after neck ligation, group later given 20 pmol peptide in 10 μl, 6th instar nymphs; for % Activity relative to the effect of Carmo-HrTH-II (metabolic): 20 pmol peptide injected, carbohydrate increase relative to Carmo-HrTH-II = 100, NS = no significant increase. The procedure:
Sixth instar nymphs that were 1–2 days before molting were neck-ligated and used in the hypertrehalosemic in vivo assay as described in detail by [Gäde and Lohr (1982)]. Stock peptide solutions (5 pmol μl^–1) were diluted with distilled water to the desired concentration in 10 μl, which was injected into the stick insect nymphs.
In the first series of experiments, various doses of synthetic Carmo-HrTH-II and corpora cardiaca (CC) extract of C. morosus were used to determine the maximal hypertrehalosemic response of C. morosus. Hemolymph samples were taken from 17 to 18 days old 6th instar nymphs 2 h after they were neck-ligated and then 90 min after either CC extract or synthetic Carmo-HrTH-II was injected. Ligated nymphs injected with distilled water served as controls for handling stress. As depicted in Figures 1A,B, various doses of both Carmo-HrTH-II and CC extract increased the level of carbohydrates in the hemolymph in a dose-dependent manner. A dose of 0.04 pmol of synthetic Carmo-HrTH-II and the equivalent of 0.005 pairs of corpora cardiaca (pCC) were sufficient to give significant increases in hemolymph carbohydrates (p < 0.05). […] Doses of 0.1–0.5 pCC gave an average increase of 5.6 ± 0.6 mg carbohydrates ml^–1 hemolymph (Figure 1B); again, statistical analyses reveal no significant difference between the effect of these doses (p > 0.05).
Based on these pilot experiments, we selected a dose of 20 pmol for testing the analogs of Carmo-HrTH-II since such a dose of our lead compound, Carmo-HrTH-II had achieved maximal hypertrehalosemic activity.

Experiment [2] has as its system heart of neck-ligated Carausius morosus. As to the kind of experiment: Semi-exposed heart bioassay (heart beat rate). The experiment is classed as in vivo. The following applies: for % Activity relative to the effect of Carmo-HrTH-II (myotropic) / Heart rate, Difference: 20 pmol peptide in 150 μl; for % Activity relative to the effect of Carmo-HrTH-II (myotropic): heart rate increase relative to Carmo-HrTH-II = 100, NS = no significant increase; for Heart rate, Post-application: after application of 20 pmol peptide in 150 μl saline, average of first four counts; for Heart rate, Post-application / Heart rate, Pre-application: neck-ligated stick insects; for Heart rate, Pre-application: in saline before application, semi-exposed heart; for Heart rate, Difference: post- minus pre-application. The procedure: The semi-exposed heart bioassay was carried out as described ([Marco et al., 2018]) with adult stick insects between 1 and 2 months old that were ligated at the neck. Briefly, a ventral incision of the abdomen exposed the ventral cavity with the internal organs; a few drops of stick insect saline (pH 6.6; 15 mM NaCl, 18 mM KCl, 7.5 mM CaCl2, 2 mM HEPES, 50 mM MgCl2, and 184 mM glucose according to [Ejaz and Lange, 2008]) were added to the exposed part. The semi-isolated heart preparation was viewed with a dissecting microscope (12-fold magnification), and the number of observed heart beats (contractions of the heart muscle) was counted during a fixed period using a manual tally counter and a timer. Once the heart had stabilized, saline was replaced with the test solution. For this the peptide stock solution of 5 pmol μl^–1 was diluted with stick insect saline to the desired concentration and a final volume of 150 μl was used for each test.
Heart rates under normal saline served as controls. The change in heart rate after the application of the test solution was calculated as an average of the first four counts and was compared to the average heart rates counted in saline before the application of the test solution. This comparison of change in heart rates was done for all the peptides tested.

Results on seven substances are retold here after PMC7198766, “Structure-Activity Studies on the Hypertrehalosemic Hormone II of the Stick Insect Carausius morosus (Phasmatodea): Carbohydrate-Mobilization and Cardio-Stimulatory Activities” (Frontiers in Physiology, 2020).

Where “and” joins values, the source holds several entries; their conditions need not be identical. Equal entries are not always repeated.

On to “Leu-Thr-Phe-Thr-Pro-Asn-Trp-Gly-Thr amide”, for which, in experiment [1], the “Hemolymph carbohydrates, 90 min” value is 9.5 ± 1.5 mg/mL; the “Hemolymph carbohydrates, Difference” value stood at 0.7 ± 1.3 mg/mL; the “Hemolymph carbohydrates, 0 min” value turned out to be 8.8 ± 1.7 mg/mL. In experiment [2], the “% Activity relative to the effect of Carmo-HrTH-II (myotropic)” value was determined as 58%; the “Heart rate, Post-application” value stood at 46 ± 5 beats min^−1; the “Heart rate, Pre-application” value is 39 ± 6 beats min^−1; the “Heart rate, Difference” value amounted to 7 ± 2 beats min^−1.
As to “[N-Ac]Ala-Leu-Thr-Phe-Thr-Pro-Asn-Trp-Gly-Thr amide [Carmo-HrTH-II: [N-Ac]Ala^1]”, in experiment [1], the “% Activity relative to the effect of Carmo-HrTH-II (metabolic)” value was found to be 28%; the “Hemolymph carbohydrates, 90 min” value was determined as 10.6 ± 2.0 mg/mL; the “Hemolymph carbohydrates, Difference” value was found to be 1.5 ± 1.1 mg/mL; the “Hemolymph carbohydrates, 0 min” value came out at 9.0 ± 1.3 mg/mL. Besides, in experiment [2], the “Heart rate, Post-application” value worked out at 39 ± 6 beats min^−1; the “Heart rate, Pre-application” value is 39 ± 6 beats min^−1; the “Heart rate, Difference” value worked out at 0 ± 0 beats min^−1.
In the case of “pGlu-Ala-Thr-Phe-Thr-Pro-Asn-Trp-Gly-Thr amide [Ala^2-Carmo-HrTH-II]”, in experiment [1], the “% Activity relative to the effect of Carmo-HrTH-II (metabolic)” value is reported as 100%; the “Hemolymph carbohydrates, 90 min” value is 16.8 ± 1.7 mg/mL; the “Hemolymph carbohydrates, Difference” value came to 5.4 ± 1.7 mg/mL; the “Hemolymph carbohydrates, 0 min” value worked out at 11.4 ± 2.3 mg/mL. Further, in experiment [2], the “Heart rate, Post-application” value came out at 42 ± 5 beats min^−1; the “Heart rate, Pre-application” value is reported as 42 ± 7 beats min^−1; the “Heart rate, Difference” value came out at 0 ± 2 beats min^−1.
Regarding “pGlu-Leu-Ala-Phe-Thr-Pro-Asn-Trp-Gly-Thr amide [Ala^3-Carmo-HrTH-II]”, in experiment [1], the “Hemolymph carbohydrates, 90 min” value came to 11.1 ± 1.8 mg/mL; the “Hemolymph carbohydrates, Difference” value was determined as 0.8 ± 1.6 mg/mL; the “Hemolymph carbohydrates, 0 min” value was determined as 10.3 ± 2.4 mg/mL. Further, in experiment [2], the “% Activity relative to the effect of Carmo-HrTH-II (myotropic)” value amounted to 16%; the “Heart rate, Post-application” value was 40 ± 6 beats min^−1; the “Heart rate, Pre-application” value came out at 38 ± 6 beats min^−1; the “Heart rate, Difference” value was 2 ± 1 beats min^−1.
For “pGlu-Leu-Asn-Phe-Thr-Pro-Asn-Trp amide [Pyrap-AKH, naturally-occurring AKH octapeptide bioanalog, reference compound]”, in experiment [1], the “Hemolymph carbohydrates, 90 min” value stood at 9.2 ± 1.8 mg/mL; the “Hemolymph carbohydrates, Difference” value was found to be 0.5 ± 1.0 mg/mL; the “Hemolymph carbohydrates, 0 min” value was 8.7 ± 1.8 mg/mL. For the same substance, in experiment [2], the “% Activity relative to the effect of Carmo-HrTH-II (myotropic)” value is on record as 16%; the “Heart rate, Post-application” value came out at 41 ± 4 beats min^−1; the “Heart rate, Pre-application” value amounted to 39 ± 5 beats min^−1; the “Heart rate, Difference” value was found to be 2 ± 2 beats min^−1.
Regarding “pGlu-Leu-Asn-Phe-Thr-Pro-Asn-Trp-Gly-Ser amide [Phymo-AKH, naturally-occurring AKH decapeptide bioanalog, reference compound]”, in experiment [1], the “Hemolymph carbohydrates, 90 min” value stood at 10.5 ± 1.4 mg/mL; the “Hemolymph carbohydrates, Difference” value turned out to be 0.9 ± 1.7 mg/mL; the “Hemolymph carbohydrates, 0 min” value amounted to 9.6 ± 1.8 mg/mL. For the same substance, in experiment [2], the “% Activity relative to the effect of Carmo-HrTH-II (myotropic)” value worked out at 8%; the “Heart rate, Post-application” value stood at 38 ± 4 beats min^−1; the “Heart rate, Pre-application” value was 37 ± 3 beats min^−1; the “Heart rate, Difference” value was 1 ± 1 beats min^−1.
As to “pGlu-Leu-Thr-Phe-Thr-Pro-Asn-Trp amide [Peram-CAH-II, naturally-occurring AKH octapeptide bioanalog, reference compound]”, in experiment [1], the “% Activity relative to the effect of Carmo-HrTH-II (metabolic)” value is 30% and 31%; the “Hemolymph carbohydrates, 90 min” value came out at 11.0 ± 1.1 mg/mL; the “Hemolymph carbohydrates, Difference” value was 1.7 ± 2.0 mg/mL; the “Hemolymph carbohydrates, 0 min” value was determined as 9.3 ± 1.8 mg/mL.
